Results reported in ChEMBL document CHEMBL1153443, “Development of an in-capillary approach to nanoscale automated in vitro cytochromes p450 assays” (J Med Chem, 2009).

Target: CYP2D6 (Homo sapiens, UniProt P10635)
Experiment: Inhibition of human recombinant CYP2D6 at 5 uM assessed as blockade of O-demethylation of dextromethorphan in to dextrophan by nanoscale automated in-capillary assay
Assay type: ADME
Settings: recombinant CYP2D6, probe dextromethorphan (O-demethylation to dextrorphan)

CYP2D6, sequence (P10635 whole entry): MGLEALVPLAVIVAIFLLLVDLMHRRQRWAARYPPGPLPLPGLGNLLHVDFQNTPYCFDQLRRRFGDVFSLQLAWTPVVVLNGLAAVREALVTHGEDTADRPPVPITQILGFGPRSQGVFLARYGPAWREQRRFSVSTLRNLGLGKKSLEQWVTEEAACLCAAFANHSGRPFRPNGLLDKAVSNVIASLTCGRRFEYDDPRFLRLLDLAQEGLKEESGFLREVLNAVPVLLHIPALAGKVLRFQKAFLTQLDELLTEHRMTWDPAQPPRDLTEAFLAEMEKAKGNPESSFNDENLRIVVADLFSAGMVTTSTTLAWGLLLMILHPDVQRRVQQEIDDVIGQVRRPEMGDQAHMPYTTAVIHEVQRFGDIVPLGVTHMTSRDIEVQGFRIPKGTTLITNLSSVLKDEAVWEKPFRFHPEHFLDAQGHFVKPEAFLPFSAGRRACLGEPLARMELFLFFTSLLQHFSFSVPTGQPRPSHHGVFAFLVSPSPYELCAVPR

Compound | inhibition at 5 µM [%]
CNCCC(Oc1ccc(C(F)(F)F)cc1)c1ccccc1 (configuration not stated) [FLUOXETINE] | 20
COc1ccc(C(CN(C)C)C2(O)CCCCC2)cc1 (configuration not stated) [VENLAFAXINE] | 0
